Reference: patent US20250262170A1, “COMBINATIONS OF BETA 2-ADRENERGIC RECEPTOR AGONISTS AND BETA 3-ADRENERGIC RECEPTOR AGONISTS, AND MEDICAL USES THEREOF” (ATROGI AB, priority 2022, published 2025)

Biological target: T1, human β3-adrenergic receptor (Homo sapiens, UniProt P13945)
T1 construct: expressed in transfected cells
Assay: cAMP levels in CHO-K1 cells expressing the human β3-adrenergic receptor
Assay type: cell-based
Details: 10 μM, 15 min
Experimental: CHO-K1 cells stably expressing the human β3-adrenergic receptors were serum-starved overnight and stimulated with an agonist, final concentration 1×10^−5 M, for 15 min in stimulation buffer (HBSS supplemented with 1% BSA, 5 mM HEPES and 1 mM IBMX, pH 7.4) The medium was then aspirated and to end the reaction, 100 μL of 95% EtOH was added to each well of the 24-well plate and cells were kept at −20° C. overnight. The next day EtOH was allowed to evaporate and 250 μL of lysis buffer (1% BSA, 5 mM HEPES and 0.3% Tween-20, pH 7.4) was added to each well. The plate was kept at −80° C. for 30 min and thawed in room temperature. Intracellular cAMP levels were detected using an alpha screen cAMP kit (6760635D from Perkin Elmer). The activity for each compound is compared to that of isoproterenol.

T1 sequence (P13945 whole entry): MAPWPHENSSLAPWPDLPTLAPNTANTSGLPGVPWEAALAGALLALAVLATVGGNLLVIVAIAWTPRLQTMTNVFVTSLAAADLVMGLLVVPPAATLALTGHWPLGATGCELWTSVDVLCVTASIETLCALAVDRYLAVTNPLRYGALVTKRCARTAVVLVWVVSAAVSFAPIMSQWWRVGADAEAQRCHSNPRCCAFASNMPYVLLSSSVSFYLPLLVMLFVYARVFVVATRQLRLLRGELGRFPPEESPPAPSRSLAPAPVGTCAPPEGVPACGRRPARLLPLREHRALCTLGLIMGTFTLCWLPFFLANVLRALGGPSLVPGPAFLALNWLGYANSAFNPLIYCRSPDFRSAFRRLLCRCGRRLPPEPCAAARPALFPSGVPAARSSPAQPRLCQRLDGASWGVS

Activity (intracellular cAMP compared to that of isoproterenol) | SMILES
+ + | CCS(=O)(=O)N[C@H]1CC[C@@H](CC(C)(C)NC[C@H](O)c2cncc(F)c2)CC1 [Compound 18, N-((cis)-4-(2-(((R)-2-(5-fluoropyridin-3-yl)-2-hydroxyethyl)amino)-2-methylpropyl)cyclo-hexyl)ethanesulfonamide]

Same assay, conditions: CHO-K1, 0.25 h, 15 min, read-out: Activity (intracellular cAMP compared to that of isoproterenol)

SMILES | Emax at 10 µM [%]
CN(C)C(=O)N1CCC[C@@H](CC(C)(C)NC[C@H](O)c2cncc(F)c2)C1 [Compound 2, (S)-3-(2-(((R)-2-(5-fluoro-pyridin-3-yl)-2-hydroxy-ethyl)amino)-2-methyl-propyl)-N,N-dimethyl-piperidine-1-carboxamide] | 50 to 75
CNC(=O)N1CCC[C@@H](CC(C)(C)NC[C@H](O)c2cccc(F)c2)C1 [Compound 3, (S)-3-(2-(((R)-2-(3-fluorophenyl)-2-hydroxy-ethyl)amino)-2-methyl-propyl)-N-methylpiperidine-1-carboxamide] | > 75
CN(C)C(=O)N1CCC[C@@H](CC(C)(C)NC[C@H](O)c2cccc(F)c2)C1 [Compound 4, (S)-3-(2-(((R)-2-(3-fluoro-phenyl)-2-hydroxyethyl)-amino)-2-methylpropyl)-N,N-dimethylpiperidine-1-carboxamide] | > 75
COC(=O)N1CCC[C@@H](CC(C)(C)NC[C@H](O)c2cccc(F)c2)C1 [Compound 5, methyl (S)-3-(2-(((R)-2-(3-fluorophenyl)-2-hydroxy-ethyl)amino)-2-methyl-propyl)piperidine-1-carboxylate] | > 75
CC(C)(C[C@@H]1CCCN(C(=O)C(F)(F)F)C1)NC[C@H](O)c1cccc(F)c1 [Compound 9, 2,2,2-trifluoro-1-((S)-3-(2-(((R)-2-(3-fluorophenyl)-2-hydroxyethyl)amino)-2-methylpropyl)piperidin-1-yl)-ethan-1-one] | 50 to 75
CCCS(=O)(=O)N[C@H]1CC[C@H](CC(C)(C)NC[C@H](O)c2cncc(F)c2)CC1 [Compound 10, N-((trans)-4-(2-(((R)-2-(5-fluoropyridin-3-yl)-2-hydroxyethyl)amino)-2-methylpropyl)cyclohexyl)-propane-1-sulfonamide] | > 75
CC(C)(C[C@H]1CC[C@H](NS(=O)(=O)C(F)(F)F)CC1)NC[C@H](O)c1cncc(F)c1 [Compound 11, 1,1,1-trifluoro-N-((1R,4r)-4-(2-(((R)-2-(5-fluoropyridin-3-yl)-2-hydroxyethyl)amino)-2-methylpropyl)cyclohexyl)-methanesulfonamide] | > 75
CC(C)CS(=O)(=O)N[C@H]1CC[C@@H](CC(C)(C)NC[C@H](O)c2cncc(F)c2)CC1 [Compound 14, N-((cis)-4-(2-(((R)-2-(5-fluoropyridin-3-yl)-2-hydroxyethyl)amino)-2-methylpropyl)cyclohexyl)-2-methylpropane-1-sulfonamide] | 50 to 75
CCCCS(=O)(=O)N[C@H]1CC[C@H](CC(C)(C)NC[C@H](O)c2cncc(F)c2)CC1 [Compound 19, N-((trans)-4-(2-(((R)-2-(5-fluoropyridin-3-yl)-2-hydroxyethyl)amino)-2-methylpropyl)cyclohexyl)-butane-1-sulfonamide] | > 75
CC(C)CS(=O)(=O)N[C@H]1CC[C@H](CC(C)(C)NC[C@H](O)c2cncc(F)c2)CC1 [Compound 20, N-((trans)-4-(2-(((R)-2-(5-fluoropyridin-3-yl)-2-hydroxyethyl)amino)-2-methylpropyl)cyclohexyl)-2-methylpropane-1-sulfonamide] | > 75
CCS(=O)(=O)N[C@H]1CC[C@H](CC(C)(C)NC[C@H](O)c2cncc(F)c2)CC1 [Compound 21, N-((trans)-4-(2-(((R)-2-(5-fluoropyridin-3-yl)-2-hydroxyethyl)amino)-2-methylpropyl)cyclohexyl)-ethanesulfonamide] | > 75
CC(C)(C[C@H]1CC[C@H](NS(C)(=O)=O)CC1)NC[C@H](O)c1ccc(F)c(N)c1F [Compound 23, N-((trans)-4-(2-(((R)-2-(3-amino-2,4-difluorophenyl)-2-hydroxyethyl)amino)-2-methylpropyl)cyclohexyl)-methanesulfonamide] | > 75
COCC12CC(C1)[C@H]([C@H](O)c1cccc(F)c1)N2 [Compound 29, (R)-(3-fluorophenyl)((R)-1-(methoxymethyl)-2-aza-bicyclo[2.1.1]hexan-3-yl)-methanol] | 50 to 75
O[C@H](c1cncc(F)c1)C12CCC(COc3ccc(OC(F)(F)F)cc3)(CC1)N2 [Compound 32, (R)-(5-fluoropyridin-3-yl)((1r,4R)-4-((4-(trifluoro-methoxy)phenoxy)methyl)-7-azabicyclo[2.2.1]heptan-1-yl)methanol] | > 75
CC(C)(C[C@H]1CC[C@H](NS(C)(=O)=O)CC1)NC[C@H](O)c1cccc(C#N)n1 [Compound 35, N-((trans)-4-(2-(((S)-2-(6-cyanopyridin-2-yl)-2-hydroxyethyl)amino)-2-methylpropyl)cyclohexyl)-methanesulfonamide] | > 75
CO[C@H]1CC[C@@H](CC(C)(C)NC[C@H](O)c2ccc(F)c(N)c2F)CC1 [Compound 36, (R)-1-(3-amino-2,4-difluoro-phenyl)-2-((1-((cis)-4-methoxycyclohexyl)-2-methylpropan-2-yl)amino)-ethan-1-ol] | > 75
CO[C@H]1CC[C@H](CC(C)(C)NC[C@H](O)c2ccc(F)c(N)c2F)CC1 [Compound 37, (R)-1-(3-amino-2,4-difluoro-phenyl)-2-((1-((trans)-4-methoxycyclohexyl)-2-methylpropan-2-yl)amino)-ethan-1-ol] | > 75

Continued, values first:

Emax at 10 µM [%] | SMILES
> 75 | CC(=O)N[C@H]1CC[C@@H](C[C@@H]2CC[C@H]([C@H](O)c3cccc(F)c3F)N2)CC1 [Compound 1, N-((cis)-4-(((2S,5R)-5-((R)-(2,3-difluorophenyl)-(hydroxy)methyl)pyrrolidin-2-yl)methyl)cyclohexyl)-acetamide]
> 75 | CO[C@H]1CC[C@H](C[C@@H]2CC[C@H]([C@H](O)c3cccc(F)c3F)N2)CC1 [Compound 6, (R)-(2,3-difluorophenyl)-((2R,5S)-5-(((trans)-4-methoxycyclohexyl)methyl)-pyrrolidin-2-yl)methanol]
50 to 75 | CO[C@H]1CC[C@@H](C[C@@H]2CC[C@H]([C@H](O)c3cccc(F)c3F)N2)CC1 [Compound 7, (R)-(2,3-difluorophenyl)-((2R,5S)-5-(((cis)-4-methoxycyclohexyl)methyl)-pyrrolidin-2-yl)methanol]
> 75 | CCCCS(=O)(=O)N[C@H]1CC[C@@H](CC(C)(C)NC[C@H](O)c2cccc(F)c2)CC1 [Compound 12]
> 75 | CCCCS(=O)(=O)N[C@H]1CC[C@H](CC(C)(C)NC[C@H](O)c2cccc(F)c2)CC1 [Compound 13]
> 75 | CC(C)CS(=O)(=O)N[C@H]1CC[C@@H](CC(C)(C)NC[C@H](O)c2cccc(F)c2)CC1 [Compound 16, N-((cis)-4-(2-(((R)-2-(3-fluorophenyl)-2-hydroxy-ethyl)amino)-2-methyl-propyl)cyclohexyl)-2-methyl-propane-1-sulfonamide]
> 75 | CCS(=O)(=O)N[C@H]1CC[C@H](CC(C)(C)NC[C@H](O)c2cccc(F)c2)CC1 [Compound 17, N-((trans)-4-(2-(((R)-2-(3-fluorophenyl)-2-ethyl)amino)-2-methylpropyl)cyclohexyl)-ethanesulfonamide]
> 75 | CC(C)(C[C@H]1CC[C@H](S(N)(=O)=O)CC1)NC[C@H](O)c1cccc(F)c1 [Compound 22, (trans)-4-(2-(((R)-2-(3-fluorophenyl)-2-hydroxy-ethyl)amino)-2-methyl-propyl)cyclohexane-1-sulfonamide]
> 75 | CS(=O)(=O)N[C@H]1CC[C@H](C[C@@H]2CC[C@H]([C@H](O)c3cccc(F)c3)N2)CC1 [Compound 24, N-((trans)-4-(((2S,5R)-5-((R)-(3-fluorophenyl)-(hydroxy)methyl)pyrrolidin-2-yl)methyl)cyclohexyl)-methanesulfonamide]
> 75 | CC(C)(C[C@H]1CC[C@H](NS(=O)(=O)C2CC2)CC1)NC[C@H](O)c1cccc(F)c1 [Compound 25, N-((trans)-4-(2-(((R)-2-(3-fluorophenyl)-2-hydroxy-ethyl)amino)-2-methyl-propyl)cyclohexyl)cyclo-propanesulfonamide]
> 75 | CNS(=O)(=O)[C@H]1CC[C@H](CC(C)(C)NC[C@H](O)c2cccc(F)c2)CC1 [Compound 27, (trans)-4-(2-(((R)-2-(3-fluorophenyl)-2-hydroxy-ethyl)amino)-2-methy-propyl)-N-methyl-cyclohexane-1-sulfonamide]
> 75 | CC(C)(C[C@H]1CC[C@H](NS(=O)(=O)C(F)(F)F)CC1)NC[C@H](O)c1cccc(F)c1 [Compound 30, 1,1,1-trifluoro-N-((trans)-4-(2-(((R)-2-(3-fluorophenyl)-2-hydroxyethyl)amino)-2-methylpropyl)cyclohexyl)-methanesulfonamide]
> 75 | CCCS(=O)(=O)N[C@H]1CC[C@H](CC(C)(C)NC[C@H](O)c2cccc(F)c2)CC1 [Compound 31, N-((trans)-4-(2-(((R)-2-(3-fluorophenyl)-2-hydroxy-ethyl)amino)-2-methyl-propyl)cyclohexyl)propane-1-sulfonamide]
> 75 | CC(C)(C[C@H]1CC[C@H](NC(=O)C(F)(F)F)CC1)NC[C@H](O)c1cccc(F)c1 [Compound 33, 2,2,2-trifluoro-N-((1R,4r)-4-(2-(((R)-2-(3-fluorophenyl)-2-hydroxyethyl)amino)-2-methylpropyl)cyclohexyl)-acetamide]
